One experiment has as its target T1, GFP-Hsp70i (Homo sapiens, UniProt P0DMV8).
T1 construct: host or cells: HEK 293T
Description: FLECS elution of GFP-Hsp70i from γ-phosphate-linked ATP resin. The experiment is classed as binding. As to the method:
(§1) FLECS Screen: A pEGFP-tagged Hsp70i was (plasmid 15215, Addgene, Cambridge, Mass.) used in the FLECS assay and was originally cloned according to [Zeng et al. (2004). Hsp70 dynamics in vivo: effect of heat shock and protein aggregation. Journal of cell science 117, 4991-5000]. ATP used in the assay was purchased from Sigma (St. Louis, Mo.) and a 200 mM stock was prepared with low salt buffer (150 mM NaCl, 25 mM Tris, pH 7.5, 60 mM MgCl2). The γ-phosphate ATP sepharose was synthesized as previously described and stored in low salt buffer [Haystead et al. (1993). Gamma-phosphate-linked ATP-sepharose for the affinity purification of protein kinases. Rapid purification to homogeneity of skeletal muscle mitogen-activated protein kinase kinase. European journal of biochemistry/FEBS 214, 459-467]. FuGENE 6 transfection reagent (Roche, Mannheim, Germany) was used for transfection of GFP-Hsp70i into HEK 293T cells, following the manufacturer protocol. The transfection ensued for 48 hours, upon which time the cells were harvested and lysed in cell lysis buffer (150 mM NaCl, 50 mM Tris, pH 7.5, 1% Triton X-100, 1 mM EDTA, 1 mM DTT, and 1 tablet Complete Mini protease inhibitor (Roche)). Cell lysates were stored at −80° C. until further use. Upon binding the resin lysates were washed 3× with high stringency wash buffer (1 M NaCl, 25 mM Tris, pH 7.5, 60 mM MgCl2, 1 mM DTT) and 3× with low stringency wash buffer (150 mM NaCl, 25 mM Tris, pH 7.5, 60 mM MgCl2, 1 mM DTT). […]
Assembly of a focused library, consisting of 3379 purine like compounds, was described previously [Carlson et al. (2013). Fluorescence Linked Enzyme Chemoproteomic Strategy for Discovery of a Potent and Selective DAPK1 and ZIPK Inhibitor. […] The lysates were eluted from the filter plate onto a catch plate by centrifugation and the fluorescence of the eluates was measured. […] Next, the presence of GFP-Hsp70i in the eluates from the 197 primary hits was determined by Western blot. […]

Experiment [1] deals with Hsp70i, Hsc70, Grp78, Grp75, Hsp90. As to the kind of experiment: Elution of HEK 293T cell lysate proteins from the ATP resin (silver stain, Western blot). The class given is binding. The conditions noted are these: Western blot. As to the method: as §1, with “DTT). Next the lysates were transferred to 0.2 μm PVDF filter 96-well plate (Corning, Corning, N.Y.) sitting on top of a black flat-bottomed 96-well catch plate (Corning).” for “DTT).”
HS-72 specifically targets Hsp70i over other members of the Hsp70 superfamily. […] To more thoroughly determine the specificity of HS-72 for Hsp70i, the HEK 293T eluates were also analyzed for other Hsp70 family members Hsc70, Grp78, and Grp75, as well as Hsp90 by Western blot. […] The linker on the resin was cleaved using sodium dithionite and the samples were subjected to SDS-PAGE and analyzed by Western blot, silver stain, and mass spectrometry. […]
On the technique in general: A western blot detects proteins with antibodies after separation by electrophoresis.

A further experiment addresses Hsp70i (Homo sapiens, UniProt P0DMV8). Description: Thermofluor assay, purified Hsp70i. To be noted: for effect on Tm of Hsp70i: compound alone; for increase of the Tm of Hsp70i: nucleotide alone, FIG. 4E/4G. The arrangement: Full length Hsp70 (black arrow) and tryptic fragments (blue arrows); His tag (cleaved yes); made in house. The class given is binding. As to the method:
Protein Purification: Plasmids were provided for human HSPA1A, HSPA8, and HSPA1A C306D. Plasmids were transformed in Rosetta competent cells and single colonies were picked from streaked LB/ampicillin/chloramphenicol plates. Cultures were grown at 37° C. for 4-6 hours, were cooled to 15° C. and expression was induced overnight with 200 uM isopropyl 1-thio-β-D-galactopyranoside. Cells were pelleted and resuspended in Ni-lysis buffer (50 mM Na2HPO4, 300 mM NaCl, 10 mM Imidazole, 0.05% Tween-20) supplemented with Complete Mini protease inhibitor tablets (Roche, Mannheim, Germany) and […], and then sonicated. The cells were again pelleted and the supernatant was incubated with complete His-Tag purification resin (Roche, Mannheim, Germany) for 5 hours at 4° C. The resin was washed with Ni-wash buffer (50 mM Na2HPO4, 300 mM NaCl, 20 mM Imidazole, 0.05% Tween-20) and eluted with Ni-elution buffer (50 mM Na2HPO4, 300 mM NaCl, 250 mM Imidazole, 0.05% Tween-20). The elution was then incubated with tobacco etch virus protease overnight at 4° C. The following day the elution was incubated with the γ-phosphate ATP sepharose resin for 30 minutes at 4° C. Next the resin was washed with ATP-wash buffer (50 mMTris-HCl, 60 mM MgCl2, 60 mM KCl, 10 mM Citrate) supplemented with 1 mM DTT and then ATP-wash buffer supplemented with 2 mM ATP was added to the resin to elute the protein. The final elutions were concentrated in Amicon Ultra-15 Centrifugal Filter Units (EMD Millipore, Billerica, Mass.) and buffer exchanged into 25 mM HEPES, 5 mM MgCl2, 10 mM KCl (pH 7.5) and stored at −80° C. until use.
(§2) Thermofluor Assay: SYPRO orange (Molecular Probes, Eugene, Oreg.) was diluted 1:1000 in 25 mM HEPES, 5 mM MgCl2, 10 mM KCl (pH 7.5) and purified Hsp70i, Hsc70, Hsp70i C306, or Hsp90, was then added to a final dilution of 0.04 mg/ml. Where indicated 0.001% or 0.01% Triton X-100 (Sigma) was also added. The indicated compound or DMSO was then added at the specified concentration and each sample was added as 5 replicates to a 384 well plate (BioRad, Hercules, Calif.). A melt curve protocol (25° C. to 90° C., increasing 0.5° C. and a plate reading every 30 seconds) was run on a CFX384 Touch™ Real-Time PCR Detection System (BioRad). To determine the midpoint of the protein unfolding transition or Tm, GraphPad Prisim4 (La Jolla, Calif.) was used to normalize the melt curve and to calculate the first derivate of the melt curve, with the steepest point of the slope being the Tm.
(In general: Differential scanning fluorimetry follows unfolding on heating by fluorescence.)

Another experiment deals with MCF7. As to the kind of experiment: Cell proliferation, MCF7. The class given is cell-based. As to the method: (§3) Cell Proliferation: Cell proliferation was determined using a Hoechst stain (Sigma, St. Louis, Mo.) to quantify DNA. 5,000 cells of the designated cell line were plated in 96 well plates and treated the next day, designated as time point 0, with the indicated concentration of the specified compound maintained for the duration of the assay. At the indicated time points the media was removed and plated frozen at −80° C. Double distilled H2O was then added and the plates were incubated at 37° C. for 1 hour. After 1 hour the plates were frozen at −80° C. After freezing the plates were thawed and Hoechst stain was diluted 1:1000 in THE buffer (10 mM Tris, 2M NaCl, 1 mM Na2EDTA). The final fluorescence was measured on the Victor X2 plate reader at 355/460 nm, and cell proliferation was determined with the formula: % Cell Proliferation=100×(Sample fluorescence−background fluorescence)/(Control fluorescence−background fluorescence).

The test system of a further experiment is SkBr3. As to the kind of experiment: Cell proliferation, SkBr3. The class given is cell-based. Here is the method: as §3
Another experiment relates to Hsp90. As to the kind of experiment: Thermofluor assay, Hsp90. The experiment is classed as binding. Here is the method: as §2
The next experiment concerns Her2 and Akt. As to the kind of experiment: Degradation assay (Western blot of client proteins). The class given is cell-based. To be noted: compound alone. Here is the method: Western Blotting: SDS-PAGE was carried out using Criterion™ Cell system using pre-casted 4-20% or 4-15% Criterion™ Tris-HCl gels (BioRad, Hercules, Calif.). For Western blotting gels were run at 200V for 1 hour using the PowerPac basic power supply (BioRad, Hercules, Calif.). Next, gels were transferred to nitrocellulose for blotting at 100V for 1 hour (Fisher Scientific, Waltham, Mass.). Nitrocellulose membranes were blocked with 5% dry non-fat milk in phosphate-buffered saline (PBS) with 0.01% Tween-20 for 1 hour at room temperature. Membranes were incubated with primary antibodies (1:1000 dilution) overnight at 4° C. The next day membranes were washed 3× in PBS-Tween, incubated for 1 hour at room temperature with secondary antibodies, and further washed 3× in PBS-Tween. ECL Plus Western blotting reagent (Pierce Biotechnology, Rockford, Ill.) was used to detect antibodies. GFP, Her2, Akt, Hsp70, Hsc70, Grp78, Grp75, and Hsp90 primary antibodies and all associated secondary antibodies were purchased from Cell Signaling Technology (Danvers, Mass.).
Degradation Assay: The specified cells were seeded overnight and then treated with the indicated concentration of compound for 24 hours. The cells were then harvested and subjected to analysis by Western blot.

SMILES strings stand for the structures.

Chain of Hsp70i (P0DMV8 whole entry, the tested form may be a part): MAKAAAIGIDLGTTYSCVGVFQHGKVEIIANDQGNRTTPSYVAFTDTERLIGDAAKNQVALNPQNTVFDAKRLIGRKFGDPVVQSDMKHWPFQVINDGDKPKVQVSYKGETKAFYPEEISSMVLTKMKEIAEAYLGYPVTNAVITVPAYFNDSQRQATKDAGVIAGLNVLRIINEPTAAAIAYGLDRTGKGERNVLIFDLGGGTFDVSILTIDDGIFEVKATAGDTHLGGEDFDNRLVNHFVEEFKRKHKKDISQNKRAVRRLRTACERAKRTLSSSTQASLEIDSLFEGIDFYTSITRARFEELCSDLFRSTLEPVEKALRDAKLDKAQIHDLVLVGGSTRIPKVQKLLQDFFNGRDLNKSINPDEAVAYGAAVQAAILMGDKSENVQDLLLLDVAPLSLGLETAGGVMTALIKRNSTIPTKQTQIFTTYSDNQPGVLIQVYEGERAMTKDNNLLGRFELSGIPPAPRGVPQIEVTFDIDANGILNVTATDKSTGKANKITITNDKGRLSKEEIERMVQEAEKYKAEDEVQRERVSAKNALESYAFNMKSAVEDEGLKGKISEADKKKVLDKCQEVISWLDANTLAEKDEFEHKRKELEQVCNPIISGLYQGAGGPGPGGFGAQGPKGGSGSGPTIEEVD
T1 sequence (P0DMV8 whole entry): as the sequence (P0DMV8 whole entry, the tested form may be a part) above

`Nc1ncnc2c1ncn2[C@@H]1O[C@H](COP(=O)(O)OP(=O)(O)OP(=O)(O)O)[C@@H](O)[C@H]1O` [ATP, reference compound]: the “nucleotide concentration needed to release bound GFP-Hsp70i from the γ-linked ATP resin” value at GFP-Hsp70i was “low μM”. The “Hsp70 family members and Hsp90 eluted from the ATP resin” value in experiment [1] is “All the Hsp70 family members and Hsp90 are eluted”. Besides, at Hsp70i, the “effect on Tm of Hsp70i” value was “increase the Tm of Hsp70i in a dose dependent manner” and the “increase of the Tm of Hsp70i” value is 3 °C.

Turning to `CCCn1c(NC(=O)[C@@H]2CCCN(c3cnccn3)C2)nc2ccccc21` [HS-71, (R)—N-(1-propyl-1H-benzo[d]imidazol-2-yl)-1-(pyrazin-2-yl)piperidine-3-carboxamide], the cell proliferation result in the experiment with MCF7 (MCF7, 24 hours) is listed as “no effect on proliferation”; in the experiment on MCF7 (MCF7, 48 hours at 25 uM and 50 uM) it was “inhibition”; in the experiment on SkBr3 (SkBr3, 48 and 72 hours at 25 uM and 50 uM) it was “inhibition in proliferation”; in the experiment with SkBr3 (SkBr3, 24 hours), “no effect on proliferation”. The “cell proliferation, concentration with significant inhibition” value in the experiment on MCF7 (MCF7, 72 hours) was 50 uM alone. At Hsp70i, the “effect on Tm of Hsp70i” value was “does not change”. Besides, the “effect on Tm of the ATP bound Hsp70i” value at Hsp70i (in presence of ATP) is given as “does not change”.

Consider `N#Cc1ccc(COC[C@H]2O[C@@H](n3c(NCc4ccc(Cl)c(Cl)c4)nc4c(N)ncnc43)[C@H](O)[C@@H]2O)cc1` [VER, VER-15508, reference compound], for which the “effect on Tm of Hsp70i” value at Hsp70i was “increase”.

Take `NS(=O)(=O)C#Cc1ccccc1` [PES, pifithrin-μ, reference compound]: the “effect on Tm of Hsp70i” value at Hsp70i is given as “no dose dependent effect”.

For the molecule `Nc1ncnc2c1ncn2[C@@H]1O[C@H](COP(=O)(O)OP(=O)(O)O)[C@@H](O)[C@H]1O` [ADP, reference compound], the “nucleotide concentration needed to release bound GFP-Hsp70i from the γ-linked ATP resin” value on GFP-Hsp70i was “mM”. Moreover, on Hsp70i, the “effect on Tm of Hsp70i” value is on record as “increase the Tm of Hsp70i in a dose dependent manner” and the “increase of the Tm of Hsp70i” value worked out at 2.5 °C.

For the molecule `Cc1nn(-c2ccc(C(N)=O)c(N[C@H]3CC[C@H](O)CC3)c2)c2c1C(=O)CC(C)(C)C2` [HS-10, 2-(((1r,4r)-4-hydroxycyclohexyl)amino)-4-(3,6,6-trimethyl-4-oxo-4,5,6,7-tetrahydro-1H-indazol-1-yl)benzamide, reference compound], the “increase of the Tm of Hsp90” value in the experiment with Hsp90 came to 10.5 °C. Also, the “Tm of Hsp90 in presence of compound” value in the experiment with Hsp90 (from 50° C. without compound) is 60.5 °C. The Hsp70 protein levels entry with Her2 and Akt is given as “increased Hsp70 protein levels”. The “Akt and Her2 expression” value with Her2 and Akt (BT474 breast cancer cells) was “induced degradation of Her2 and Akt”.

The values above are taken from patent US10000469B2, “Heat shock protein 70 (hsp-70) receptor ligands” (Duke University, priority 2014, dated 2018).
